# Test results from patent US20250084056A1, “SUBSTITUTED OXOISOINDOLINYL PIPERIDINE-2,6-DIONE COMPOUNDS” (BRISTOL-MYERS SQUIBB COMPANY, priority 2023, published 2025).
# Assays:
# [1] = test system: HCC1569 breast carcinoma xenograft model; assay: In vivo xenograft tumor efficacy study, HCC1569; parameters: species or system mice; conditions: HCC1569 xenografts, repeated dosing
# Procedure: The anti-cancer efficacy of Example 35 was evaluated in xenograft models by measuring the reduction in tumor volume in animals treated with Example 35 compared to vehicle control animals. First, 5-10×10^6 tumor cells/animal in a 1:1 Matrigel® mix (0.2 mL total volume) were injected subcutaneously into female NSG mice (for NIHOVCAR3) and SCID mice (for HCC1569). Both strains of mice were purchased from Jackson Laboratory. Once tumors reached ˜150-200 mm^3, animals were randomized into groups of 8-10 animals/treatment arm for efficacy studies. Example 35 was administered via oral gavage (PO) at indicated doses and regimens (Table 7). Tumor growth and body weight were measured twice/week during the course of the study to evaluate efficacy and signs of toxicity.
# Example 35 was formulated in 10% ethanol, 10% Vitamin E—TPGS, 30% propylene glycol, 50% PEG400 and administered by oral gavage (final volume 0.2 mL) at the doses indicated in Table 7. […]
# The efficacy for each treated arm at different dose levels were calculated using the following formula: % ΔT/ΔC=[(TVT−TVT0)/(TVC−TVC0)]×100%. […] The percentage of tumor growth inhibition was calculated from the formula: % TGI=[100%−(% ΔT/ΔC)]. […]
# Example 35 was evaluated for in vivo single-agent efficacy against the HCC1569 breast carcinoma xenograft model and NIHOVCAR3 ovarian adenocarcinoma xenograft model.
# [2] = target: Cyclin E1 (Homo sapiens, UniProt P24864+Q96SW2); assay: Cellular degradation of Cyclin E1 (Western blot) in HCC1569 cells; type: cell-based; parameters: endogenous in cells; host or cells: HCC1569 (ATCC CRL-2330); conditions: HCC1569 cancer cells, 24 h, FIG. 1A
# Procedure: The assay measured the ability of the compound to degrade Cyclin E1, inhibit RB phosphorylation, and to determine the selectivity against degradation of GSPT1 in cancer cells in vitro. HCC1569 cells (ATCC #CRL-2330) were cultured in RPMI media (Gibco, catalog A104910) supplemented with 10% FBS (Gibco, catalog 10091148). Cells were plated in tissue culture-treated 6 well plates at a density of 0.5 million cells per well in 2 mL media. The cells were then incubated overnight in a cell culture incubator (5% CO2 and 37° C.) and allowed to attach to the plate. The following day cells were dosed with compounds at the desired concentrations. Compounds were first resuspended in DMSO to make 10 mM stock, and 20 μM stock was prepared by diluting 10 mM stock in culture media. […] Total protein concentration was measured using a BCA assay kit (Thermo Scientific, cat #P123227). […] Protein was then detected by incubating blots with 2 mL of HRP detection reagent (Thermo scientific cat #A38556) for one minute at room temperature. Excess reagent was drained and gently removed on a Kimwipe and the chemiluminescence signal was detected using Fluorchem imaging system. […] Relative quantification of western blots was performed using ImageJ software, data was then normalized to loading control (β-Actin) first and then to the DMSO-treated sample. […]
# Chain of Cyclin E1 (P24864 whole entry): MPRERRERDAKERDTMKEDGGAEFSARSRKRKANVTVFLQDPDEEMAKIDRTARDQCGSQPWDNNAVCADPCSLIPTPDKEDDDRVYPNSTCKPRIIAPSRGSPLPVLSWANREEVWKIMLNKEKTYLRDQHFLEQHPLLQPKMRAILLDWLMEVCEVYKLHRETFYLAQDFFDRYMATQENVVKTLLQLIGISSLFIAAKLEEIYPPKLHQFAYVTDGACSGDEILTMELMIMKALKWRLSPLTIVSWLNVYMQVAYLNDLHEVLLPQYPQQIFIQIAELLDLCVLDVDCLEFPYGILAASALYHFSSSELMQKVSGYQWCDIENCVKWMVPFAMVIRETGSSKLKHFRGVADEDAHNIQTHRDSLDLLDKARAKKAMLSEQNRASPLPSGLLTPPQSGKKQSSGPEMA
# Chain of Cyclin E1 (Q96SW2 whole entry): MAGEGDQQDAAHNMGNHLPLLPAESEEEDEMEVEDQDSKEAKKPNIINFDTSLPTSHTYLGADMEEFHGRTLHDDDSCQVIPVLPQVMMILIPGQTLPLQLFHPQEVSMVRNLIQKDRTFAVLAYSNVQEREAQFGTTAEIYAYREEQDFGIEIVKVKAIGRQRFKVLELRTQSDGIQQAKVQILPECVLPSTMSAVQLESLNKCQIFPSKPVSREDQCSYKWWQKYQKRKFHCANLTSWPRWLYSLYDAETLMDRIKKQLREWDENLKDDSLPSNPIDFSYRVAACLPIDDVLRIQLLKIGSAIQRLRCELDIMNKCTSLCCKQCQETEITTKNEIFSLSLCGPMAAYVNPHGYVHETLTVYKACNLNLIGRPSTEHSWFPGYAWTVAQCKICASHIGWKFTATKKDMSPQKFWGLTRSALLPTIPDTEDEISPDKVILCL
# Chain of Cyclin E1 (Q16531 whole entry partner): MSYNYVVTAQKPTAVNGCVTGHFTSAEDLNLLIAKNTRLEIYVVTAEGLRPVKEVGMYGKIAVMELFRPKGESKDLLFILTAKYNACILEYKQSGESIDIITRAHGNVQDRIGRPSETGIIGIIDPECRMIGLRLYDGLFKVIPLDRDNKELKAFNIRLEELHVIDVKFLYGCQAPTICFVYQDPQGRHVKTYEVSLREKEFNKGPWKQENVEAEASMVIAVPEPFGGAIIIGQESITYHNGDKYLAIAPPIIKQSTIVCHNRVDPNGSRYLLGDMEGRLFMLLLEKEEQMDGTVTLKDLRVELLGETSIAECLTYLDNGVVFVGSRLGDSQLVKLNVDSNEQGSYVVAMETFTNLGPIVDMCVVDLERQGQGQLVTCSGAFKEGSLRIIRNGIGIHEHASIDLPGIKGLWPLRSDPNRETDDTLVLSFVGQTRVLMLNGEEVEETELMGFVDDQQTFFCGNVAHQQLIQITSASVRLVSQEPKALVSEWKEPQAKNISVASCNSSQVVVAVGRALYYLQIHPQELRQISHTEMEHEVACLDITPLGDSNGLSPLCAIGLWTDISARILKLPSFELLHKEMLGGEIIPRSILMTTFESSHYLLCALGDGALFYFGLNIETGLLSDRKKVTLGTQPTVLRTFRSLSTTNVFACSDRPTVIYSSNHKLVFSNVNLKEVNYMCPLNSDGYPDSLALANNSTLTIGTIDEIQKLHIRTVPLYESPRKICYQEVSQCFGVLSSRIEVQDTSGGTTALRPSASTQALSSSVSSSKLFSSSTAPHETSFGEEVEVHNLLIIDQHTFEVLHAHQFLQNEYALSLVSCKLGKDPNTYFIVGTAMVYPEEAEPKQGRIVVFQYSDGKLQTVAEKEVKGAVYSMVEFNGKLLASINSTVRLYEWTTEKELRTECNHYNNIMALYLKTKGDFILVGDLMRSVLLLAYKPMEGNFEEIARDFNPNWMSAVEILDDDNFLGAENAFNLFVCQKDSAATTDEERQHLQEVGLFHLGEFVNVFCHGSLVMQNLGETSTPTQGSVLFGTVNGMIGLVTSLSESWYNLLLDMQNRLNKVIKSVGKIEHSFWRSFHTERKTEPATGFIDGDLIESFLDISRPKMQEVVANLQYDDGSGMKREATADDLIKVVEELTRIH
smiles,measurement,setting,value
"COc1c(COC(=O)Nc2ccc(Oc3ccc(F)c(F)c3)cc2)ccc2c1C(=O)N([C@H]1CCC(=O)NC1=O)C2 (single isomer, unassigned) [Example 35, {2-[(3 S)-2,6-dioxopiperidin-3-yl]-4-methoxy-3-oxo-2,3-dihydro-1H-isoindol-5-yl}methyl N-[4-(3,4-difluorophenoxy)phenyl]carbamate]",anti-tumor activity,[1],dose-dependent anti-tumor activity
same,degradation of Cyclin E1 protein,[2],induced degradation of Cyclin E1 protein in a dose dependent manner
